Experimental data taken from patent publication US20150005264A1, “PREDICTIVE BIOMARKER FOR HYPOXIA-ACTIVATED PRODRUG THERAPY” (THRESHOLD PHARMACEUTICALS, INC., priority 2012, published 2015).

Tested on: melanoma
Assay: Clinical trial of TH-302 monotherapy in melanoma patients, response compared with serum CA-IX level
Type: in vivo, human
Conditions: thirty melanoma patients, pre-dose serum CA-IX (ELISA) cut-offs 28.8, 77.1, 178.3 pg/mL, FIG. 1
Description: In one important embodiment, the HAP is TH-302. In a clinical trial of TH-302 in melanoma patients, CA-IX levels were measured in serum samples taken from patients prior to TH-302 administration. Measured levels varied widely, with the first quartile having levels of 28.8 pg/mL CA-IX or less, the median being 77.1 pg/mL CA-IX, and the 3rd quartile having 178.3 pg/mL or less.
The data set used to generate the graphs in FIG. 1 was used to generate the graph in FIG. 2, which uses the 2×Median value of 154.2 pg/mL as the cut-off for dividing patients into high and low CA-IX level groups. Using this value as the cut-off, one sees an even more dramatic example of the predictive value of CA-IX levels in determining whether a patient will respond to TH-302 or other HAP therapy.

Q: Which “progression-free survival (response to TH-302) versus serum CA-IX level” value does the source give for `Cn1c(COP(=O)(NCCBr)NCCBr)cnc1[N+](=O)[O-]` [TH-302, (2-bromoethyl)({[(2-bromoethyl)amino][(2-nitro-3-methylimidazol-4-yl)methoxy]phosphoryl})amine] here?
A: higher CA-IX levels correlated to a better response to TH-302
